Laboratory results published in patent US20050101518A1, “Methods of treating conditions associated with an EDG-2 receptor” (priority 2002, published 2005).

Legend:
[1] = test system: immortalized ovarian surface epithelial cells; assay: LPA-stimulated calcium mobilization in immortalized ovarian surface epithelial cells; format: cell-based; conditions: 10 μM compound, FIG. 3
Description: [The procedure below names another cell line; the source lists this cell line under the same test.] (§1) LPA receptors such as Edg-2, couple to calcium effector pathways, and result in increases in intracellular calcium following receptor activation (An, 1998, J. Cell. Biochem. Supp., 30-31: 147-157). This biological response lends itself to a very efficient, high-throughput screen using a Fluorescence Imaging Plate Reader (FLIPR; Molecular Devices, Sunnyvale, Calif.). The FLIPR system is a real-time, cell-based assay system with continuous fluorescence detection using a cooled CCD camera. The FLIPR system was used to developing an Edg-2 receptor screen. Rat hepatoma cells stably expressing Edg-2 receptor were plated on 384-well plates and loaded with a calcium dye loading kit (Molecular Devices, Sunnyvale, Calif.) for 1 hour at room temperature. Cells were then placed on the FLIPR^384 (Molecular Devices, Sunnyvale, Calif.) and excited by an argon laser at 488 nm. The data for the entire 384-well plate was updated every second. An integrated robotic pipettor allowed for simultaneous compound addition into each individual well in the plate.

[2] = test system: forskolin-stimulated cAMP production; assay: cAMP assay: LPA inhibition of forskolin-stimulated cAMP production; format: cell-based; conditions: 10 μM compound; FIG. 4
Method: Cells were plated in a 96 well format. Treatments were performed directly without any serum starvation. The cells were treated with forskolin to induce cAMP production, followed by LPA or S1P doses in the range from 0.1-10 μM in serum free medium. Following a 30-minute incubation period, the cells were lysed and the level of cAMP was determined.
The cAMP assay was performed using the Tropix cAMP-Screen (Applied BioSystems, Foster City, Calif.). The screen is a competitive immunoassay that utilizes a 96 well assay plate precoated with an anti-cAMP antibody. Cell lysates were added to the precoated plate, along with a cAMP-AP conjugate and a secondary anti-cAMP antibody.
Detection was performed using a substrate solution and chemiluminescent readout. The level of chemiluminescence was inversely proportional to the level of cAMP and was calculated from a standard curve.

[3] = test system: A431 human epitheloid carcinoma cells; assay: LPA-stimulated calcium mobilization in A431 human epitheloid carcinoma cells; format: cell-based; conditions: for inhibition of LPA-stimulated calcium mobilization: 10 μM compound, FIG. 6
Description: [The procedure below names another cell line; the source lists this cell line under the same test.] as §1

Edg 1 receptor = target: T1, Edg 1 receptor (Homo sapiens, UniProt P21453); assay: Intracellular calcium measurement (FLIPR), S1P-stimulated calcium increases in HTC cells expressing Edg 1; format: cell-based; conditions: FIG. 1 and 2
T1 construct: expressed in transfected cells; host or cells: HTC (rat hepatoma) cells
T1 sequence (P21453 whole entry): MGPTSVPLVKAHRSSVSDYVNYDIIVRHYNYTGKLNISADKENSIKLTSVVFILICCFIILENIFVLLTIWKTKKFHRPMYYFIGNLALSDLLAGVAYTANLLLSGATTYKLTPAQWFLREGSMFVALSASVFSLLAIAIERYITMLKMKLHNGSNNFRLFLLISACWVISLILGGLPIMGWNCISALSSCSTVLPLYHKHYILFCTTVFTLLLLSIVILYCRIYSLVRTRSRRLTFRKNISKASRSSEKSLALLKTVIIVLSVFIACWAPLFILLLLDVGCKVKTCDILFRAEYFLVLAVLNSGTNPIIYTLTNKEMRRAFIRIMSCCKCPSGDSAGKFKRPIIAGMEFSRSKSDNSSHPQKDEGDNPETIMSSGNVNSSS

Edg-2 receptor = target: T2, Edg-2 receptor (Homo sapiens, UniProt Q92633); assay: Intracellular calcium measurement (FLIPR), LPA-stimulated calcium increases in rat hepatoma (HTC) cells stably expressing Edg-2; format: cell-based; conditions: for inhibition of the Edg 2 receptor: FIG. 1 and 2; for IC50: calcium mobilization, HTC cells expressing Edg 2; for Fold Selective: selectivity for Edg-2 relative to other Edg receptors
T2 construct: expressed in transfected cells
T2 sequence (Q92633 whole entry): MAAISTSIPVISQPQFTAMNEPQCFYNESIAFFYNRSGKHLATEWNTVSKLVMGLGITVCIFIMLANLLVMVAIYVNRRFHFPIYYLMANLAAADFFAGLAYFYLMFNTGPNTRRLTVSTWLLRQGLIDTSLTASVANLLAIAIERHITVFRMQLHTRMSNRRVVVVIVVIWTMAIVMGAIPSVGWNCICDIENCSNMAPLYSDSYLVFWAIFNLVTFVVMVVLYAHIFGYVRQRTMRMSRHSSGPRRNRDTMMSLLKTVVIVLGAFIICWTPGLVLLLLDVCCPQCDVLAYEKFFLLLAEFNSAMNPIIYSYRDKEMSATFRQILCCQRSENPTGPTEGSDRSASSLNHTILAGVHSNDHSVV
Description: as §1

Edg 3 receptor = target: T3, Edg 3 receptor (Homo sapiens, UniProt Q99500); assay: Intracellular calcium measurement (FLIPR), S1P-stimulated calcium increases in HTC cells expressing Edg 3; format: cell-based; conditions: FIG. 1 and 2
T3 construct: expressed in transfected cells; host or cells: HTC (rat hepatoma) cells
T3 sequence (Q99500 whole entry): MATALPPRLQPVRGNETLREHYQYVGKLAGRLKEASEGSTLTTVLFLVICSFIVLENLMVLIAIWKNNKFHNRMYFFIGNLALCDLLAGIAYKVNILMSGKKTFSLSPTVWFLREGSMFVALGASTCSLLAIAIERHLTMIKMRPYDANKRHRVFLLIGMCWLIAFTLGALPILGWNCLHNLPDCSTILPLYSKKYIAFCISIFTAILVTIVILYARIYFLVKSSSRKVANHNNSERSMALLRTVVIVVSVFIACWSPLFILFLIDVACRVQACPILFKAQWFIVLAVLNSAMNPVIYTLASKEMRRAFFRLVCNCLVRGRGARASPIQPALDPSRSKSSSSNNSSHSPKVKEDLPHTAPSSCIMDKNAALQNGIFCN

Edg-4 receptor = target: T4, Edg-4 receptor (Homo sapiens, UniProt Q9HBW0); assay: Intracellular calcium measurement (FLIPR), LPA-stimulated calcium increases in HTC cells expressing Edg-4; format: cell-based; conditions: FIG. 1 and 2
T4 construct: expressed in transfected cells; host or cells: HTC (rat hepatoma) cells
T4 sequence (Q9HBW0 whole entry): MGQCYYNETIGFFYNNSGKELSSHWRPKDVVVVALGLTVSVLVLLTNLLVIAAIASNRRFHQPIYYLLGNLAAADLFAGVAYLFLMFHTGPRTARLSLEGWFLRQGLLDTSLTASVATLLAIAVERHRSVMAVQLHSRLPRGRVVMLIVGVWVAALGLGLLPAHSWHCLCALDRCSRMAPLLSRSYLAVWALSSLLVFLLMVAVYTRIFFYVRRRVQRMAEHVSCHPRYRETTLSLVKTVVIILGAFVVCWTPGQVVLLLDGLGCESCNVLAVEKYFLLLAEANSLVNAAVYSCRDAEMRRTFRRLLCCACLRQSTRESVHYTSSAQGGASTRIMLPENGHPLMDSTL

Edg 5 receptor = target: T5, Edg 5 receptor (Homo sapiens, UniProt O95136); assay: Intracellular calcium measurement (FLIPR), S1P-stimulated calcium increases in HTC cells expressing Edg 5; format: cell-based; conditions: FIG. 1 and 2
T5 construct: expressed in transfected cells; host or cells: HTC (rat hepatoma) cells
T5 sequence (O95136 whole entry): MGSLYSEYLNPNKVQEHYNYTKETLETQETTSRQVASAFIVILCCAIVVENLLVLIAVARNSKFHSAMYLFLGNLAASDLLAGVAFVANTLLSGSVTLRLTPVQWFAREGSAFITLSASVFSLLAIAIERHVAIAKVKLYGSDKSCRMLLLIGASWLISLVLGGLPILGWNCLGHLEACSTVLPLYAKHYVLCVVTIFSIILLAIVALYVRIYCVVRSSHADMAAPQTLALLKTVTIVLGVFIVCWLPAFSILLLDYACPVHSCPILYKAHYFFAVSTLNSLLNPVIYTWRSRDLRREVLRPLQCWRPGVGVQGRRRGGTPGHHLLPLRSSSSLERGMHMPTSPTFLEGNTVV

Edg 6 receptor = target: T6, Edg 6 receptor (Homo sapiens, UniProt O95977); assay: Intracellular calcium measurement (FLIPR), S1P-stimulated calcium increases in HTC cells expressing Edg 6; format: cell-based; conditions: for inhibition of S1P-stimulated calcium increases, Edg 6: FIG. 1 and 2; for IC50: calcium mobilization
T6 construct: expressed in transfected cells; host or cells: HTC (rat hepatoma) cells
T6 sequence (O95977 1-384): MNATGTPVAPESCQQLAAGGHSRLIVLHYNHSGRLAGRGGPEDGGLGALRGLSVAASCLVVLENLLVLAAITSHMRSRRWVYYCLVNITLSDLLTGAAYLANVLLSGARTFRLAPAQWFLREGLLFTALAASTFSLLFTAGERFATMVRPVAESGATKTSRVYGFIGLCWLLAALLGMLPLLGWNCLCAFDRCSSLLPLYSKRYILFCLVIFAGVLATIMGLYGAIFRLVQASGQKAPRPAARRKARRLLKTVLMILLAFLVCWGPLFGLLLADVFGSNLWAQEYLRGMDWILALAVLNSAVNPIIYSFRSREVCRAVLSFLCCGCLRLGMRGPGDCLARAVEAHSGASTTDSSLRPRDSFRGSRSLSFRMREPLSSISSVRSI

Edg-7 receptor = target: T7, Edg-7 receptor (Homo sapiens, UniProt Q9UBY5); assay: Intracellular calcium measurement (FLIPR), LPA-stimulated calcium increases in HTC cells expressing Edg-7; format: cell-based; conditions: FIG. 1 and 2
T7 construct: expressed in transfected cells; host or cells: HTC (rat hepatoma) cells
T7 sequence (Q9UBY5 whole entry): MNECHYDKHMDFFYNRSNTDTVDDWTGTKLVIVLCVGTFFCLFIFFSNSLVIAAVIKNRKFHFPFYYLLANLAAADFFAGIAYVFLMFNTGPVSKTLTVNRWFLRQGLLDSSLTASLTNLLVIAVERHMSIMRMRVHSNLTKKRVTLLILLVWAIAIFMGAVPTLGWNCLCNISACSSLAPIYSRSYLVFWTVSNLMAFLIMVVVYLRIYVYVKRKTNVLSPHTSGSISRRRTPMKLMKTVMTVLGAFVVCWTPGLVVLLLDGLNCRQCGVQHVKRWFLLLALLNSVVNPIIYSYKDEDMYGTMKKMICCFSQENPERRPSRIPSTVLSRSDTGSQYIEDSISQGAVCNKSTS

Edg 8 receptor = target: T8, Edg 8 receptor (Homo sapiens, UniProt Q9H228); assay: Intracellular calcium measurement (FLIPR), S1P-stimulated calcium increases in HTC cells expressing Edg 8; format: cell-based; conditions: FIG. 1 and 2
T8 construct: expressed in transfected cells; host or cells: HTC (rat hepatoma) cells
T8 sequence (Q9H228 whole entry): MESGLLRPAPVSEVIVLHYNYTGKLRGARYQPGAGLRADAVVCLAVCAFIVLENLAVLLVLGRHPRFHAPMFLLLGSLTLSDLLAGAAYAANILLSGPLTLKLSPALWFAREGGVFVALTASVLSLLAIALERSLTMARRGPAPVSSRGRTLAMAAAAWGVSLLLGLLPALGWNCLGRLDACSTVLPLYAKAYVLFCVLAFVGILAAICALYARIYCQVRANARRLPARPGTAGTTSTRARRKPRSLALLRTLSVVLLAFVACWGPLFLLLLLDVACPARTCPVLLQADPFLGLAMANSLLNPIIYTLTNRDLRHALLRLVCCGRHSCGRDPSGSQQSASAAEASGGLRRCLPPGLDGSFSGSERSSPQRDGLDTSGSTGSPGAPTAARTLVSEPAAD

[4] = test system: Adrenergic α1, non-selective; conditions: significance criteria ≧50% of max stimulation or inhibition; Table 2
Method: (§2) A radioligand binding assay was performed using adrenergic α1 according to the method of Greengrass and Bremner 1979, Eur. J. Pharmacol. 55:323-326. A radioligand binding assay was performed using adrenergic α2 according to the method of Boyajian and Leslie, 1987, J. Pharmacol. Exp. Ther. 241:1092-1098. A redioligand binding assay was performed using adrenergic β according to the method of Feve et al., 1994, Proc. Natl. Acad. Sci. USA 91:5677-5681. A radioligand binding assay was performed using angiotensin AT2 according to the method of Whitebread el al., 1991, Biochem. Biophys. Res. Comm. 181:1365-1371. A radioligand binding assay was performed using calcium channel Type L, dihydropyridine according to the method of Ehlert et al., 1982, Life Sci. 30:2191-2202. A radioligand binding assay was performed using dopamine D2L according to the method of Bunzo et al., 1988, Nature 336:783-787. A radioligand binding assay was performed using endothelin ETA according to the method of Mihara et al., 1994, J. Phrmacol. Exp Ther. 268:1122-1127. A radioligand binding assay was performed using histamine H1 Central according to the method of Hill et al., 1978, J. Neurochem. 31:997-1004. A radioligand binding assay was performed using Muscarinic non-selective, Central according to the method of Luthin and Wolfe, 1984, J. Pharmacol. Exp. Ther. 228:648-655. A radioligand binding assay was performed using serotonin 5-HT1, non-selective according to the method of Middlemiss, 1984, Eur. J. Pharmacol. 101:289-293).

Adrenergic α2 = conditions: significance criteria ≧50% of max stimulation or inhibition; Table 2
Method: as §2

Adrenergic β = conditions: significance criteria ≧50% of max stimulation or inhibition; Table 2
Method: as §2

Angiotensin AT2 = Angiotensin AT2 (Homo sapiens, UniProt P50052); conditions: significance criteria ≧50% of max stimulation or inhibition; Table 2
Sequence of Angiotensin AT2 (P50052 whole entry): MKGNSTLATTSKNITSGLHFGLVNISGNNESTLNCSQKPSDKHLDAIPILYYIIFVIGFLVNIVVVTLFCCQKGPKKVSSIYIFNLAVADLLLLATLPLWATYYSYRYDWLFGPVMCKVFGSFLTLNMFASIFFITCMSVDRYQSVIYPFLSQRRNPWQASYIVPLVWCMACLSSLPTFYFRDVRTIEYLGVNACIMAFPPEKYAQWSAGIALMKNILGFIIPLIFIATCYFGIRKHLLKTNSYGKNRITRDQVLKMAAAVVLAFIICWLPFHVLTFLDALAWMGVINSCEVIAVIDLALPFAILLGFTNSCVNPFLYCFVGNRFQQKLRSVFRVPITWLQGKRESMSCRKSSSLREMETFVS
Method: as §2

[5] = test system: Calcium Channel Type L, Dihydropyridine; conditions: significance criteria ≧50% of max stimulation or inhibition; Table 2
Method: as §2

Dopamine D2L = Dopamine D2L (Homo sapiens, UniProt P14416); conditions: significance criteria ≧50% of max stimulation or inhibition; Table 2
Sequence of Dopamine D2L (P14416 whole entry): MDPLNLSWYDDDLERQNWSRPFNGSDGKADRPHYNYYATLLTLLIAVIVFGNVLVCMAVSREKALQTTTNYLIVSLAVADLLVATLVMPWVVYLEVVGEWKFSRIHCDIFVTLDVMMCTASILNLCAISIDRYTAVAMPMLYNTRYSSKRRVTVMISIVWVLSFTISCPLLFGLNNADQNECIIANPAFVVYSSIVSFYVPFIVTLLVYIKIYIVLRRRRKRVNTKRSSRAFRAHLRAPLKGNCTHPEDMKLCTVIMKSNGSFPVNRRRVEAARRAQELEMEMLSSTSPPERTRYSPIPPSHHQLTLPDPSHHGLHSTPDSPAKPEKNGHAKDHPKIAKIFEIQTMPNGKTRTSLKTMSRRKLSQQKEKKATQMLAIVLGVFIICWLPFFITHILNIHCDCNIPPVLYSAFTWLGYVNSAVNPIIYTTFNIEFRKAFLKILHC
Method: as §2

Endothelin ETA = Endothelin ETA (Homo sapiens, UniProt P25101); conditions: significance criteria ≧50% of max stimulation or inhibition; Table 2
Sequence of Endothelin ETA (P25101 21-427): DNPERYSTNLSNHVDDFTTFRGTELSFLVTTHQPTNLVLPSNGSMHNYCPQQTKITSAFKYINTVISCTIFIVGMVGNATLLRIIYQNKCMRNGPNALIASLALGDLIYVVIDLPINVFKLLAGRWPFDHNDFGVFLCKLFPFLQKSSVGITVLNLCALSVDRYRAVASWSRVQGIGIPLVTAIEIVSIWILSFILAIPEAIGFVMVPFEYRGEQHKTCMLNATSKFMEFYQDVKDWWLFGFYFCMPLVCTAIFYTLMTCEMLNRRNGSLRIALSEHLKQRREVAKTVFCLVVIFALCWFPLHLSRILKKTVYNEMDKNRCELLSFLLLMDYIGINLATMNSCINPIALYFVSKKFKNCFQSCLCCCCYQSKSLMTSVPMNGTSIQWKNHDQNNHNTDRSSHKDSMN
Method: as §2

Histamine H1, Central = Histamine H1, Central (Cavia porcellus, UniProt P31389); conditions: significance criteria ≧50% of max stimulation or inhibition; Table 2
Sequence of Histamine H1, Central (P31389 whole entry): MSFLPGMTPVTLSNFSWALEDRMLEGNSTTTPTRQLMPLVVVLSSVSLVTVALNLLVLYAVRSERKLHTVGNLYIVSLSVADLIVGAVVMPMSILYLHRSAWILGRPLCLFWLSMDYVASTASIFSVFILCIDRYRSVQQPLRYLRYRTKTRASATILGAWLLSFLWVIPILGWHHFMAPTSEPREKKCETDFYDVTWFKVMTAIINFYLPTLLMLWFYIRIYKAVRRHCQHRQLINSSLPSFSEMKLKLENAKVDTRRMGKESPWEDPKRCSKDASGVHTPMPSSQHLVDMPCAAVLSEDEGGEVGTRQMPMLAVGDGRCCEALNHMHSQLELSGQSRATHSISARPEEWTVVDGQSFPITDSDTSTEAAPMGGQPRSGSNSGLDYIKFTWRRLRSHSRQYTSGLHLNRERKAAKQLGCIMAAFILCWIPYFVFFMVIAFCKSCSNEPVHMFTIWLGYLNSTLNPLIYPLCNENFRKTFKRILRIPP
Method: as §2

[6] = test system: Muscarinic non-selective, Central; conditions: significance criteria ≧50% of max stimulation or inhibition; Table 2
Method: as §2

[7] = test system: Serotonin 5-HT1, non-selective; conditions: significance criteria ≧50% of max stimulation or inhibition; Table 2
Method: as §2

[8] = test system: various targets tested, including other GPCRs, ion channels, and enzymes; assay: Pharmacology profiling (selectivity assays) at various non-Edg targets; format: binding
Description: Res. Comm. 181:1365-1371. […] Exp Ther. 268:1122-1127. […] 31:997-1004.

Compound: O=C(CC(=O)C(F)(F)F)Nc1cc(-c2ccccc2)n[nH]1 [Compound 201, 4,4,4-trifluoro-3-oxo-N-(5-phenyl-2H-pyrazol-3-yl)butyramide, reference compound]
- inhibition of LPA-stimulated calcium mobilization [1]: little to no effect
- reversal of LPA inhibition of forskolin-stimulated cAMP production [2]: little to no effect
- inhibition of LPA-stimulated calcium mobilization [3]: not

Compound: CCOc1ccccc1N1C(=O)CC(N(O)c2ccccc2)C1=O (stereo not shown) [Compound 101, 1-(2-Ethoxyphenyl)-3-(hydroxyphenylamine)-pyrrolidine-2,5-dione]
- inhibition of S1P-stimulated calcium increases, Edg 1 (Edg 1 receptor): did not inhibit
- inhibition of the Edg 2 receptor (Edg-2 receptor): specifically inhibit
- IC50 (Edg-2 receptor): 1400 nM
- Fold Selective (Edg-2 receptor): >14.3
- inhibition of S1P-stimulated calcium increases, Edg 3 (Edg 3 receptor): did not inhibit
- inhibition of LPA-stimulated calcium increases, Edg 4 (Edg-4 receptor): did not inhibit
- inhibition of S1P-stimulated calcium increases, Edg 5 (Edg 5 receptor): did not inhibit
- inhibition of S1P-stimulated calcium increases, Edg 6 (Edg 6 receptor): did not inhibit
- IC50 (Edg 6 receptor): > 20000 nM
- inhibition of LPA-stimulated calcium increases, Edg 7 (Edg-7 receptor): did not inhibit
- inhibition of S1P-stimulated calcium increases, Edg 8 (Edg 8 receptor): did not inhibit
- inhibition of LPA-stimulated calcium mobilization [3]: inhibition
- inhibition of LPA-stimulated calcium mobilization, dose response to LPA ([3]; varying concentrations of compound (0-10 μM), FIG. 5): inhibition
- activity in radioligand binding assay, Adrenergic Alpha 1, non-selective [4]: no significant activity
- activity in radioligand binding assay, Adrenergic Alpha 2, non-selective (Adrenergic α2): no significant activity
- activity in radioligand binding assay, Adrenergic Beta, non-selective (Adrenergic β): no significant activity
- activity in radioligand binding assay, Angiotensin AT2 (Angiotensin AT2): no significant activity
- activity in radioligand binding assay, Calcium Channels Type L, DHP [5]: no significant activity
- activity in radioligand binding assay, Dopamine D2L (Dopamine D2L): no significant activity
- activity in radioligand binding assay, Endothelin ETA (Endothelin ETA): no significant activity
- activity in radioligand binding assay, H1 central (Histamine H1, Central): no significant activity
- activity in radioligand binding assay, Muscarinic, non-selective, central [6]: no significant activity
- activity in radioligand binding assay, Serotonin 5HT1 non-selective [7]: no significant activity
- activity at various targets tested, including other GPCRs, ion channels, and enzymes [8]: did not demonstrate any significant activity

Compound: CCn1nc(C)c(-c2ccccc2O)c1-c1ccccc1 [Compound 103, 2(1-Ethyl-3-methyl-5-phenyl-1H-pyrazol-4-yl)phenol]
- inhibition of S1P-stimulated calcium increases, Edg 1 (Edg 1 receptor): did not inhibit
- inhibition of the Edg 2 receptor (Edg-2 receptor): specifically inhibited
- IC50 (Edg-2 receptor): 640 nM
- Fold Selective (Edg-2 receptor): >31.3
- inhibition of S1P-stimulated calcium increases, Edg 3 (Edg 3 receptor): did not inhibit
- inhibition of LPA-stimulated calcium increases, Edg 4 (Edg-4 receptor): did not inhibit
- inhibition of S1P-stimulated calcium increases, Edg 5 (Edg 5 receptor): did not inhibit
- inhibition of S1P-stimulated calcium increases, Edg 6 (Edg 6 receptor): did not inhibit
- IC50 (Edg 6 receptor): > 20000 nM
- inhibition of LPA-stimulated calcium increases, Edg 7 (Edg-7 receptor): did not inhibit
- inhibition of S1P-stimulated calcium increases, Edg 8 (Edg 8 receptor): did not inhibit
- inhibition of LPA-stimulated calcium mobilization [1]: almost completely inhibited
- reversal of LPA inhibition of forskolin-stimulated cAMP production [2]: reverses the inhibitory effects of LPA
- inhibition of LPA-stimulated calcium mobilization [3]: inhibition
- activity at various targets tested, including other GPCRs, ion channels, and enzymes [8]: did not demonstrate any significant activity

Compound: CCOc1ccccc1N1C(=O)CC(N(O)c2ccc(F)cc2)C1=O (stereo not shown) [Compound 111, 1-(2-Ethoxyphenyl)-3-[(4-fluorophenyl)hydroxylamino]pyrrolidine-2,5-dione]
- melting point: 123 to 124 °C
